Usually MIC stands for the smallest concentration in the dilution series that meets the test's criterion for growth inhibition.

The text below walks through data of US20230165970A1, “COMPOSITIONS AND METHODS FOR THE TREATMENT OF BACTERIAL INFECTIONS” (priority 2017, published 2023).

The test system of one assay is LPS from E. coli O111:B4. The assay can be described thus: LPS binding/neutralization by Limulus Amebocyte Lysate (LAL) assay. It is filed as biochemical. Particulars: LPS 1-10,000 ng/mL, test article 0.25-10 μM; for % LPS neutralization of TM: sum of AUCs relative to maximal AUC (Table 14). The protocol:
The LAL assay (Charles River) was used to determine the binding affinity of test articles to LPS.
For the assay, 25 μL purified LPS from E. coli O111:[…] (Sigma) at doses ranging from 1-10,000 ng/mL were incubated with 25 μL of test article at concentrations ranging from […]. After 5 min incubation at 37° C., 50 μL of LAL reagent, which reacts with lipid A portion from LPS, was added to corresponding wells. After 15 min, absorbance at 405 nm was read on EnSpire plate reader (Perkin Elmer). The % LPS neutralization is calculated relative to a PBS control (background) and LPS control at each concentration (positive control).
LPS neutralization=(1−(absorbance test article−PBS with LAL reagent)/(absorbance no test article−PBS with LAL reagent))×100
To obtain a single value of LPS neutralization for each test article, the area under the curve (AUC) for dose-response of test articles from […] for each LPS concentration was calculated using Prism 7 software. The % LPS neutralization is the sum of the AUCs for each LPS concentration determined relative to the maximal AUC achievable×100.
For the assay, 25 μL purified LPS from E. coli O111:B4 (Sigma) at doses ranging from 1-10,000 ng/mL were incubated with 25 μL of test article at concentrations ranging from 0.25-10 μM. After 5 min incubation at 37° C., 50 μL of LAL reagent, which reacts with lipid A portion from LPS, was added to corresponding wells. After 15 min, absorbance at 405 nm was read on EnSpire plate reader (Perkin Elmer). The % LPS neutralization is calculated relative to a PBS control (background) and LPS control at each concentration (positive control).

A further assay deals with Ab 19606 (COLhet^R). It counts as cell-based, Acinetobacter baumannii. Particulars: media CA-MHB. As to the method:
(§1) Briefly, stock solutions of all antibacterial agents were prepared fresh in appropriate solvents (i.e. PBS, pH 7.4, DMSO, DI, etc.). Stock concentrations for drug conjugates were made at 12.5× the highest final assay concentration. All were serially diluted 2-fold, 8 or 12 times in a 96-well PCR plate (VWR cat. no. 83007-374). Bacterial cell suspensions generated from Mueller-Hinton agar (MHA) plate cultures were prepared in 0.85% saline and adjusted to ˜0.1 OD600 nm. Next, cell suspensions were diluted 1:200 in RPMI containing 5% Luria Broth (LB) to improve bacterial growth (BD Difco, cat. no. 244620) to a concentration of ˜5×10^5 CFU (colony-forming units)/mL. Due to poor solubility in Mueller-Hinton broth media, drug conjugates were evaluated in RPMI 1640 medium (+) L-glutamine, (+) sodium bicarbonate, pH 7.4 (“RPMI B”; Gibco, cat. no. 11875-085) as has been described as a more physiologically-relevant media for susceptibility testing of antibacterial compounds (1). For the conjugates, 92 μL of each cell suspension in RPMI B were added in the same 96-well plate assay format. […] Compounds were tested against a 14-strain panel comprised of E. coli (Ec), A. baumannii (Ab), P. aeruginosa (Pa), and K. pneumoniae (Kp) that were obtained from ATCC (Ec 25922, Ec 2489, Ab 19606, Pa 27853, Pa PAO1, Kp 43816, Kp 10031), Centers for Disease Control and Prevention (Ec AR0349), BEI Resources (Ab AB5075), Micromyx LLC (Ab 8990, Kp 6951), and Belgian Coordinated Collections of Microorganisms (Pa LES431) or generated in-house (Ec 25922 64X-1). […] E. coli strain ATCC 25922 and P. aeruginosa strain LES431 were run in the presence and absence of 50% heat-inactivated fetal bovine serum (FBS; Sigma, cat. no. F4135-100 mL). Plates were mixed by shaking then incubated at 35° C. overnight (16-20 h).

The next assay concerns Ec 2469. It counts as cell-based, Escherichia coli. The protocol:
(§2) Briefly, stock solutions of all antibacterial agents were prepared fresh in appropriate solvents (i.e. PBS, pH 7.4, DMSO, DI, etc.). Stock concentrations for drug conjugates were made at 12.5× the highest final assay concentration. All were serially diluted 2-fold, 8 or 12 times in a 96-well PCR plate (VWR cat. no. 83007-374). Bacterial cell suspensions generated from Mueller-Hinton agar (MHA) plate cultures were prepared in 0.85% saline and adjusted to ˜0.1 OD600 nm. […] For the conjugates, 92 μL of each cell suspension in RPMI B were added in the same 96-well plate assay format. […] Compounds were tested against a 14-strain panel comprised of E. coli (Ec), A. baumannii (Ab), P. aeruginosa (Pa), and K. pneumoniae (Kp) that were obtained from ATCC (Ec 25922, Ec 2489, Ab 19606, Pa 27853, Pa PAO1, Kp 43816, Kp 10031), Centers for Disease Control and Prevention (Ec AR0349), BEI Resources (Ab AB5075), Micromyx LLC (Ab 8990, Kp 6951), and Belgian Coordinated Collections of Microorganisms (Pa LES431) or generated in-house (Ec 25922 64X-1). […] E. coli strain ATCC 25922 and P. aeruginosa strain LES431 were run in the presence and absence of 50% heat-inactivated fetal bovine serum (FBS; Sigma, cat. no. F4135-100 mL). Plates were mixed by shaking then incubated at 35° C. overnight (16-20 h).

Another assay has as its system Ec 25922. It counts as cell-based, Escherichia coli. As to the method: as §2
Another assay has as its system Ec 25922 64X-1 (COL^R). It counts as cell-based, Escherichia coli. Particulars: media CA-MHB. As to the method: as §1
The next assay concerns Ec AR0349 (mcr-1, COL^R). It is filed as cell-based, Escherichia coli. Particulars: media CA-MHB. As to the method:
as §1

Another assay has as its system Pa LES431. It is filed as cell-based, Pseudomonas aeruginosa. As to the method: as §2
Another assay relates to Pa PAO1. It is filed as cell-based, Pseudomonas aeruginosa. As to the method:
as §2

A further assay relates to Pa 27853. It counts as cell-based, Pseudomonas aeruginosa. As to the method:
as §2

For another assay, the system named is Kp 6951 (COL^R). It is filed as cell-based, Klebsiella pneumoniae. Particulars: Kp 6951 (COL^R); media CA-MHB. As to the method: as §2
A further assay relates to Kp 43816. It is filed as cell-based, Klebsiella pneumoniae. The protocol:
as §2

The test system of another assay is Kp 10031. It counts as cell-based, Klebsiella pneumoniae. As to the method:
as §2

Another assay concerns Ab AB5075. It counts as cell-based, Acinetobacter baumannii. As to the method: as §2
For a further assay, the system named is Ab 8990 (COL^R). It counts as cell-based, Acinetobacter baumannii. Particulars: Ab 8990 (COL^R); media CA-MHB. The protocol: as §2
The test system of another assay is Sa RN. It is filed as cell-based.

In brackets after ≈: the same amount, converted by molar mass. Where two headings read alike, the source gives them in different places. *1 amine or outer side, *2 acyl side, *3 side chain or, on linkers, in order; H or OH if unused. Where a SMILES comes first, the peptide text is derived from it. Bridges are numbered along the chain shown (N, C = ends). Roman numbers before positions name the chains, in order. [ ]: non-standard residue; d: D form. The star is where a group is joined. ξ: configuration not given here. X8 = C#CCOCCOCCOCCOCCN1CCN(C2C[C@@H](C(=O)[*:1])[C@H](C(=O)[*:2])C2)CC1; X2 = O=C([C@@H](N[*:1])[C@H](O)CCC(F)(F)F)[*:2]; Propargyl(OCH2CH2)4CO = C#CCOCCOCCOCCOCCC(=O)*; X3 = CCCCC[C@@H](O)[C@H](N[*:1])C(=O)[*:2]; Aoc(2) = CCCCCC[C@H](N)C(=O)O; Nle = CCCC[C@H](N)C(=O)O; ξF = NC(Cc1ccccc1)C(=O)O; Dab = NCC[C@H](N)C(=O)O; ξT = CC(O)C(N)C(=O)O; azaGly = NNC(=O)O A value given as a limit tells only on which side of the number the result lay.

Regarding `C#CCOCCOCCOCCOCCC(=O)N[C@@H](CCCC)C(=O)N[C@@H](CCN)C(=O)N[C@H](C(=O)N[C@@H](CCN)C(=O)N[C@H]1CCNC(=O)[C@H]([C@@H](C)O)NC(=O)[C@H](CCN)NC(=O)[C@H](CCN)NC(=O)[C@H](CC(C)C)NC(=O)[C@@H](Cc2ccccc2)NC(=O)[C@H](CCN)NC1=O)[C@H](O)CCCCC` [Int-94] ({Propargyl(OCH2CH2)4CO}-[Nle][Dab][X3][Dab][Dab][Dab][dF]L[Dab][Dab]T; lactam 5-C), in the assay with LPS from E. coli O111:B4, the “% LPS neutralization of TM” value turned out to be 79.3%.
On to `C#CCOCCOCCOCCOCCC(=O)N[C@@H](CCCC)C(=O)N[C@@H](CCN)C(=O)N[C@H](C(=O)NNC(=O)N[C@H]1CCNC(=O)[C@H]([C@@H](C)O)NC(=O)[C@H](CCN)NC(=O)[C@H](CCN)NC(=O)[C@H](CC(C)C)NC(=O)[C@@H](Cc2ccccc2)NC(=O)[C@H](CCN)NC1=O)[C@H](O)CCCCC` [Int-100] ({Propargyl(OCH2CH2)4CO}-[Nle][Dab][X3][azaGly][Dab][Dab][dF]L[Dab][Dab]T; lactam 5-C), for which the “% LPS neutralization of TM” value in the assay on LPS from E. coli O111:B4 is 38.9%.
As for `C#CCOCCOCCOCCOCCN1CCN(C2C[C@@H](C(=O)N[C@@H](CCCC)C(=O)N[C@@H](CCN)C(=O)N[C@H](C(=O)NNC(=O)N[C@H]3CCNC(=O)[C@H]([C@@H](C)O)NC(=O)[C@H](CCN)NC(=O)[C@H](CCN)NC(=O)[C@H](CC(C)C)NC(=O)C(Cc4ccccc4)NC(=O)[C@H](CCN)NC3=O)[C@@H](C)O)[C@H](C(=O)N[C@@H](CCCC)C(=O)N[C@@H](CCN)C(=O)N[C@H](C(=O)NNC(=O)N[C@H]3CCNC(=O)C(C(C)O)NC(=O)[C@H](CCN)NC(=O)[C@H](CCN)NC(=O)[C@H](CC(C)C)NC(=O)[C@@H](Cc4ccccc4)NC(=O)[C@H](CCN)NC3=O)[C@@H](C)O)C2)CC1` (stereo partly shown) [Int-105] (I: [Nle][Dab]T[azaGly][Dab][Dab][dF]L[Dab][Dab][ξT] / II: [Nle][Dab]T[azaGly][Dab][Dab][ξF]L[Dab][Dab]T; lactam I:5-I:C, II:5-II:C; linker I:N-II:N via X8), the MIC in the assay with Ab 19606 (COLhet^R) was 2 µg/mL (≈ 0.744 µM); in the assay on Ec 2469 (Ec 2469, media CA-MHB), 2 µg/mL (≈ 0.744 µM); in the assay with Ec 25922 (Ec 25922 + FBS (50%, heat-inactivated), media CA-MHB), 0.5 µg/mL; against Ec 25922 (Ec 25922, media CA-MHB), 2 µg/mL (≈ 0.744 µM); in the assay with Ec 25922 64X-1 (COL^R), 4 µg/mL (≈ 1.49 µM); against Ec AR0349 (mcr-1, COL^R) it was 4 µg/mL (≈ 1.49 µM). The minimum inhibitory concentration (MIC) in the assay on Pa LES431 (Pa LES431 + FBS (50%, heat-inactivated), media CA-MHB) is 16 µg/mL; in the assay on Pa LES431 (Pa LES431, media CA-MHB), 2 µg/mL (≈ 0.744 µM); against Pa PAO1 (Pa PAO1, media CA-MHB) it was 4 µg/mL (≈ 1.49 µM); in the assay on Pa 27853 (Pa 27853, media CA-MHB), 4 µg/mL (≈ 1.49 µM); in the assay with Kp 6951 (COL^R) it was 32 µg/mL (≈ 11.9 µM); against Kp 43816 (Kp 43816, media CA-MHB), 2 µg/mL (≈ 0.744 µM). For the same compound, the MIC was 2 µg/mL (≈ 0.744 µM) against Kp 10031 (Kp 10031, media CA-MHB); 2 µg/mL (≈ 0.744 µM) with Ab AB5075 (Ab AB5075, media CA-MHB); over 128 µg/mL against Ab 8990 (COL^R). For the same compound, in the assay with LPS from E. coli O111:B4, the “% LPS neutralization of TM” value is 33.2%.
In the case of `C#CCOCCOCCOCCOCCC(=O)N[C@@H](CCCCCC)C(=O)N[C@@H](CCN)C(=O)N[C@H](C(=O)NNC(=O)N[C@H]1CCNC(=O)[C@H]([C@@H](C)O)NC(=O)[C@H](CCN)NC(=O)[C@H](CCN)NC(=O)[C@H](CC(C)C)NC(=O)[C@@H](Cc2ccccc2)NC(=O)[C@H](CCN)NC1=O)[C@H](O)CCC(F)(F)F` [Int-119] ({Propargyl(OCH2CH2)4CO}-[Aoc(2)][Dab][X2][azaGly][Dab][Dab][dF]L[Dab][Dab]T; lactam 5-C), the minimal inhibitory concentration (MIC) turned out to be 2 µg/mL (≈ 1.35 µM) in the assay with Ec 2469; 2 µg/mL (≈ 1.35 µM) against Ec 25922; 4 µg/mL (≈ 2.69 µM) against Pa LES431; 16 µg/mL (≈ 10.8 µM) in the assay on Pa PAO1 (PAO1); 4 µg/mL (≈ 2.69 µM) in the assay with Pa 27853; 2 µg/mL (≈ 1.35 µM) against Kp 43816. Moreover, the MIC in the assay on Kp 10031 was 2 µg/mL (≈ 1.35 µM); in the assay with Ab AB5075, 1 µg/mL (≈ 0.673 µM); in the assay with Sa RN, over 128 µg/mL.
As to colistin sulfate, in the assay on LPS from E. coli O111:B4 (sum of AUCs relative to maximal AUC (Table 15)), the “% LPS neutralization” value stood at 9.21%.
